{
  "source": "paper PMC7311170",
  "about": "“Moyamoya disease factor RNF213 is a giant E3 ligase with a dynein-like core and a distinct ubiquitin-transfer mechanism” (eLife, 2020)",
  "key": {"[1]": {"target": "T1, RNF213 (mouse, full-length) (Mus musculus, UniProt E9Q555)", "T1 construct": "full length, 5148 residues, 584 kDa, C-terminal Gly3-His10 tag kept; codon-optimised, High Five insect cells; monomer; modelled residues 476-5148", "assay": "cryo-EM structure", "assay_type": "binding", "settings": "co-purified ATP, Mg; bound to catalytically inactive AAA2, contacts from AAA3"}, "[2]": {"target": "T1, RNF213 (mouse, full-length)", "assay": "NADH-coupled ATPase assay", "assay_type": "biochemical", "settings": "2 mM ATP, equimolar MgCl2 added, pH 7.2, 30 C; AAA3 and AAA4 proposed competent sites; rate only in figure"}, "[3]": {"target": "T2, RNF213 (mouse, full-length) (Mus musculus, UniProt E9Q555, R4753K)", "T2 construct": "full length, 5148 residues, 584 kDa, C-terminal Gly3-His10 tag kept; codon-optimised, High Five insect cells; monomer; modelled residues 476-5148", "T2 sequence (E9Q555 whole entry R4753K, the tested form may be a part)": "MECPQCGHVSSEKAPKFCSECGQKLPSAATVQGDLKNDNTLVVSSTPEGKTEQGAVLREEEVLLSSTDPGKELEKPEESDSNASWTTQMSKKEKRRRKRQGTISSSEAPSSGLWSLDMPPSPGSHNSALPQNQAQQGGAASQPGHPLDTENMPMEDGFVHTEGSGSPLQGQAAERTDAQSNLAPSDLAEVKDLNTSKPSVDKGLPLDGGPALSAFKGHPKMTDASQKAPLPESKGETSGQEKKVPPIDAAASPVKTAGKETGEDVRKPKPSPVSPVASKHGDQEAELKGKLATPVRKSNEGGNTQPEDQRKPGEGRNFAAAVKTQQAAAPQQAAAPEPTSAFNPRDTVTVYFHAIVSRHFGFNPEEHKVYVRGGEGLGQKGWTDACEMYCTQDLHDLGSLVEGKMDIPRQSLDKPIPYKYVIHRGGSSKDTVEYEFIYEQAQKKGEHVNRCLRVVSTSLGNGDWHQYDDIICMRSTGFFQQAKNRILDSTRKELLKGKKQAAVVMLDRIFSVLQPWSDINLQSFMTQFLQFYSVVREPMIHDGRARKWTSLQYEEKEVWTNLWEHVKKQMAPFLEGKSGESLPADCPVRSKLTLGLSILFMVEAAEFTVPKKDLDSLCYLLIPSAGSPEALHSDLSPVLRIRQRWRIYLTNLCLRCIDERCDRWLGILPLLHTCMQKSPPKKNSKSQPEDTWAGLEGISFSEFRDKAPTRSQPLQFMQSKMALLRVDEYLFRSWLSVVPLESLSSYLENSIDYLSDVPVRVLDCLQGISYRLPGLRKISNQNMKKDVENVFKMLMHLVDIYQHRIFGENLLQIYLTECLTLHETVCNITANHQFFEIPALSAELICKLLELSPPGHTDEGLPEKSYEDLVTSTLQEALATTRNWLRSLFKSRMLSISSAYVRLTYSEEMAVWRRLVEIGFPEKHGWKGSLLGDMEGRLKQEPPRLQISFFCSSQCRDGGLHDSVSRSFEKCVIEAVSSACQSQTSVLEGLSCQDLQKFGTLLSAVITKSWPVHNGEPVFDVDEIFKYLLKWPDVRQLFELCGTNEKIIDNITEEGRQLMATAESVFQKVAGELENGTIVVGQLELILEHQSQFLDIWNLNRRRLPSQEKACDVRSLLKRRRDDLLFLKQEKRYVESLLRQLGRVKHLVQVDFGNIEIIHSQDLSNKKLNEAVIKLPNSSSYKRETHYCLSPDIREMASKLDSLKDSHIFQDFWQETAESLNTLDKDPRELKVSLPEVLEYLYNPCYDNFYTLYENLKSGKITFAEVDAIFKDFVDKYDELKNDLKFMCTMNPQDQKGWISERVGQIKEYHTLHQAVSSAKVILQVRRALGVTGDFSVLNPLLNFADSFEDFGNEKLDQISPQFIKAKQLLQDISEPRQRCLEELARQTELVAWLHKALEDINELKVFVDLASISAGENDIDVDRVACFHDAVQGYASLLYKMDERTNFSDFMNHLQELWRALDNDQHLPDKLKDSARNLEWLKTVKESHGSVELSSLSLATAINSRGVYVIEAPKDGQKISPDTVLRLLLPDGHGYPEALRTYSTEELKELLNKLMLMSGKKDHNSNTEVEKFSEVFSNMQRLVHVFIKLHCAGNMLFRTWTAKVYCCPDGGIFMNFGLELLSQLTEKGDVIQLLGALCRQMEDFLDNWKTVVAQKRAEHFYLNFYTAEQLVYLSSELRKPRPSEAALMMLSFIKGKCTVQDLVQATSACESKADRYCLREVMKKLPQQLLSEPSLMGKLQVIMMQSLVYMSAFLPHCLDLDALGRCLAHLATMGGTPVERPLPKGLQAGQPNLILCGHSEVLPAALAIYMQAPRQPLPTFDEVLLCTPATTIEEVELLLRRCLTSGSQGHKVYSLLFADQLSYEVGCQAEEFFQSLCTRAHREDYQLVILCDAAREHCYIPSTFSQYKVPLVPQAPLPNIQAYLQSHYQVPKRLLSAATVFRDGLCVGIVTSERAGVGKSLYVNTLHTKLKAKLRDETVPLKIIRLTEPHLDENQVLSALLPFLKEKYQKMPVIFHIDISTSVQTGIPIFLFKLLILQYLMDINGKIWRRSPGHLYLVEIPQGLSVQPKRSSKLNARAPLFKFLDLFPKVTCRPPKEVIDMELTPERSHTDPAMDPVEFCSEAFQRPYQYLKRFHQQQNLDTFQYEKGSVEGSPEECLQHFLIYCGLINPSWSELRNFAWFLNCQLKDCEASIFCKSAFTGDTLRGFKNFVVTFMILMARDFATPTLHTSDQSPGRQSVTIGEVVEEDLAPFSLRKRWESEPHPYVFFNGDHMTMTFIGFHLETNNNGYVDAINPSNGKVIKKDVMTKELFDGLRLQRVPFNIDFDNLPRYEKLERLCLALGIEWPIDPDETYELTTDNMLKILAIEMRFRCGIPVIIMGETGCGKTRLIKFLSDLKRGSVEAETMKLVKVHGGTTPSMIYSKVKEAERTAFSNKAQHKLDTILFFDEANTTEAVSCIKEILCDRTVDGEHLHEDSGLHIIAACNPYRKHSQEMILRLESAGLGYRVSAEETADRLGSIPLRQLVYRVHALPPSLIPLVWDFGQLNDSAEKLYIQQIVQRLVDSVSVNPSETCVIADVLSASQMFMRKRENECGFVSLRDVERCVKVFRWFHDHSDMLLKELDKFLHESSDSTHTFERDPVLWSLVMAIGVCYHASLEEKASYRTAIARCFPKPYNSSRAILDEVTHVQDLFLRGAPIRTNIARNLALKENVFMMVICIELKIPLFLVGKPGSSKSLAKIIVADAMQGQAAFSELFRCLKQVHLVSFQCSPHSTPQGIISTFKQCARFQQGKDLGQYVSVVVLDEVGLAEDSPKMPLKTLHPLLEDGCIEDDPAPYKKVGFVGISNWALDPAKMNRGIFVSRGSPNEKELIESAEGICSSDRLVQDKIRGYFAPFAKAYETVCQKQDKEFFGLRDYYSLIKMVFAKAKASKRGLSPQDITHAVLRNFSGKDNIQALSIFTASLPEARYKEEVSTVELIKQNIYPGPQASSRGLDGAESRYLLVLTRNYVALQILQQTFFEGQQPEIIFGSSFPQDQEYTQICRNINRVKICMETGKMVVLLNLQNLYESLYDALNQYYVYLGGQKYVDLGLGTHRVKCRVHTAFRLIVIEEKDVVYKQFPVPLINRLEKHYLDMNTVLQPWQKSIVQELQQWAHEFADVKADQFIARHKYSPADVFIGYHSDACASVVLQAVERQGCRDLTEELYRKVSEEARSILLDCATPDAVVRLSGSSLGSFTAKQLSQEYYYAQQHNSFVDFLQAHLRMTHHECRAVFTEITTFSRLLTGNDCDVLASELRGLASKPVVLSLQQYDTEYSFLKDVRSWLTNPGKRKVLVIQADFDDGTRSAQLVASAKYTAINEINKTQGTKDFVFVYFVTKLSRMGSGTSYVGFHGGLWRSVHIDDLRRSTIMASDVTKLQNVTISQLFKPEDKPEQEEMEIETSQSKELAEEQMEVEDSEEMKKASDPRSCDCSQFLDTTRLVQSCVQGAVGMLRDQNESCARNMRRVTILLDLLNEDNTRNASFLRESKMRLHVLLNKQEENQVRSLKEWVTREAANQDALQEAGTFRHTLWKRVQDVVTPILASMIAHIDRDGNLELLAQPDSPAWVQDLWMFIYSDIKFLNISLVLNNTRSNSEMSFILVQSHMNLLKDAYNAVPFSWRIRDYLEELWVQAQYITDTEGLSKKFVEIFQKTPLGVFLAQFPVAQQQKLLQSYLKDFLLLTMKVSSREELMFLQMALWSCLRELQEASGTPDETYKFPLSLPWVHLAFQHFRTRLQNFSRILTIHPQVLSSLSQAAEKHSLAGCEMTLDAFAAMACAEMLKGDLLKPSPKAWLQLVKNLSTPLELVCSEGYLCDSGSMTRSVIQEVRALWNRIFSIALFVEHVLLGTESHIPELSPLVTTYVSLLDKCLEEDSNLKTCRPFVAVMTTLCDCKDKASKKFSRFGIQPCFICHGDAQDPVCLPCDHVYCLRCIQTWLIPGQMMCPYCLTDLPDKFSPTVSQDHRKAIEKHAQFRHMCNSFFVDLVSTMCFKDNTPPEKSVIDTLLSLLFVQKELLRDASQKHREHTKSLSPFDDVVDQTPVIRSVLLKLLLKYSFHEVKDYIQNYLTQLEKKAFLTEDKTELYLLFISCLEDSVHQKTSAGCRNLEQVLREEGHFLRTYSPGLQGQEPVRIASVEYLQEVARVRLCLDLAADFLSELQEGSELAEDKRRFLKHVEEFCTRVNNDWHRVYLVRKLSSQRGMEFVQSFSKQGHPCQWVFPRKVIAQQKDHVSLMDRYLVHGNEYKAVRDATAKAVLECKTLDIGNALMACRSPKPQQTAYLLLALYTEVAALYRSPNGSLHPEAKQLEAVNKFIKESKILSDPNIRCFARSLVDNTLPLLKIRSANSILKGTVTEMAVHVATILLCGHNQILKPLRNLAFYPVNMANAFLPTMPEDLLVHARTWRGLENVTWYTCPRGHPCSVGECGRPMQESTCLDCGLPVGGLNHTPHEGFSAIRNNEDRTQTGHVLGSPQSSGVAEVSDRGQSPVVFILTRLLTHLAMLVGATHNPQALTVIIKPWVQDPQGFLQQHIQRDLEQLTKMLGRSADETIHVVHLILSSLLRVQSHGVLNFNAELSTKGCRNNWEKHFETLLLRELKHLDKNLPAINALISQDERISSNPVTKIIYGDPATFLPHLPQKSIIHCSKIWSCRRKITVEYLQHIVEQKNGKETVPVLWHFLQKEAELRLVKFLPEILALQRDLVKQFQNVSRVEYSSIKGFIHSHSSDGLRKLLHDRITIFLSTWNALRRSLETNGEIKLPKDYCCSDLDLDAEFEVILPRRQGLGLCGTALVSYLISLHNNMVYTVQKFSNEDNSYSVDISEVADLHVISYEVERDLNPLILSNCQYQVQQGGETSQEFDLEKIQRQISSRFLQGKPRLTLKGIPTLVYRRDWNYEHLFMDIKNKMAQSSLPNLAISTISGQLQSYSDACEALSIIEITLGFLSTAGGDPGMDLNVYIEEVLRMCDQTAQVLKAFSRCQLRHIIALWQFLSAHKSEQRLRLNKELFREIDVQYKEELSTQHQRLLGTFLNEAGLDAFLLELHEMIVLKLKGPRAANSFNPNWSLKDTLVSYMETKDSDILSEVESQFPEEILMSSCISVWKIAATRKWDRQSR", "assay": "NADH-coupled ATPase assay", "assay_type": "biochemical", "settings": "2 mM ATP, equimolar MgCl2 added, pH 7.2, 30 C; Moyamoya founder mutant (human R4810K); rate only in figure"}},
  "data": [
    {"smiles": "Nc1ncnc2c1ncn2[C@@H]1O[C@H](COP(=O)(O)OP(=O)(O)OP(=O)(O)O)[C@@H](O)[C@H]1O", "note": "[ATP]", "values": [
      {"measurement": "cryo-EM structure", "setting": "[1]", "value": "unambiguously revealed a co-purified ATP molecule that is bound to AAA2"},
      {"measurement": "NADH-coupled ATPase assay", "setting": "[2]", "value": "ATPase activity of RNF213 is an order of magnitude lower than that of a processive"},
      {"measurement": "NADH-coupled ATPase assay", "setting": "[3]", "value": "does not significantly alter the enzymatic properties of RNF213 in vitro"}
    ]}
  ]
}
